± gives the standard deviation of the averaged measurements.
Assays:
OLAPARIB = compound: O=C(c1cc(Cc2n[nH]c(=O)c3ccccc23)ccc1F)N1CCN(C(=O)C2CC2)CC1 [OLAPARIB]; test: surviving fraction relative to DMSO-only wells; higher = less growth inhibition; conditions: exposure time: 5 days
Procedure, shortened: (§1)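 Five days of continuous inhibitor exposure, at 0.5, 1, 5, 10, 50, 100, 500 and 1000 nM, followed a 24-hour period after log-phase tumour cell lines were seeded at 250–500 cells per well in 384-well plates. Surviving fraction was derived from CellTiter-Glo luminescence relative to the median of DMSO-only wells. Plates were read after 10 minutes at room temperature, and lines screened three times were kept only if replicate Pearson r >0.7 and median Z' >0.3.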

[1] = compound: CNCc1ccc(-c2[nH]c3cc(F)cc4c3c2CCNC4=O)cc1; test: as above; conditions: exposure time: 5 days
Procedure, shortened: as §1

Test System	surviving fraction (OLAPARIB; 0.5 nM)	surviving fraction (OLAPARIB; 1 nM)	surviving fraction (OLAPARIB; 5 nM)	surviving fraction (OLAPARIB; 10 nM)	surviving fraction (OLAPARIB; 50 nM)	surviving fraction (OLAPARIB; 100 nM)	surviving fraction (OLAPARIB; 500 nM)	surviving fraction (OLAPARIB; 1000 nM)	surviving fraction ([1]; 0.5 nM)	surviving fraction ([1]; 1 nM)	surviving fraction ([1]; 5 nM)	surviving fraction ([1]; 10 nM)	surviving fraction ([1]; 50 nM)	surviving fraction ([1]; 100 nM)	surviving fraction ([1]; 500 nM)	surviving fraction ([1]; 1000 nM)
SG43 HEADNECK	1.18 ± 0.24	0.979 ± 0.16	0.835 ± 0.043	0.882 ± 0.095	1.19 ± 0.025	1.01 ± 0.059	0.982 ± 0.11	0.935 ± 0.042	1.13 ± 0.22	1.05 ± 0.17	0.927 ± 0.14	0.82 ± 0.18	1.06 ± 0.26	1.13 ± 0.24	1.15 ± 0.14	1.46 ± 0.17
SIHA CERVIX	0.988 ± 0.022	1.07 ± 0.13	1.02 ± 0.073	1.03 ± 0.044	0.967 ± 0.053	1.04 ± 0.061	0.91 ± 0.067	0.886 ± 0.061	0.984 ± 0.028	1.06 ± 0.13	1.09 ± 0.03	1.01 ± 0.035	0.907 ± 0.064	0.934 ± 0.023	1.03 ± 0.021	0.832 ± 0.037
SJSA1 BONE	1 ± 0.025	1.01 ± 0.045	1.03 ± 0.061	1.02 ± 0.066	1.01 ± 0.083	0.963 ± 0.024	0.931 ± 0.051	0.876 ± 0.039	1.35 ± 0.059	1.7 ± 0.1	1.6 ± 0.045	1.8 ± 0.1	1.7 ± 0.073	1.76 ± 0.059	1.65 ± 0.017	1.74 ± 0.068
SKBR3 BREAST	1.02 ± 0.1	1.05 ± 0.15	0.939 ± 0.12	1 ± 0.21	0.922 ± 0.14	0.935 ± 0.093	0.79 ± 0.13	0.813 ± 0.072	0.907 ± 0.11	0.895 ± 0.12	0.9 ± 0.14	0.841 ± 0.11	0.703 ± 0.1	0.813 ± 0.052	0.733 ± 0.14	0.734 ± 0.026
SNU475 LIVER	1 ± 0.079	0.957 ± 0.032	1 ± 0.039	0.994 ± 0.07	0.893 ± 0.059	0.8737 ± 0.0067	0.918 ± 0.013	0.838 ± 0.016	0.999 ± 0.052	0.982 ± 0.039	0.992 ± 0.065	0.99 ± 0.026	0.919 ± 0.027	0.916 ± 0.028	0.863 ± 0.053	0.892 ± 0.043
SUM44 BREAST	0.903 ± 0.012	0.911 ± 0.059	0.924 ± 0.083	0.909 ± 0.071	0.97 ± 0.068	0.958 ± 0.063	0.894 ± 0.066	0.861 ± 0.022	0.927 ± 0.097	0.981 ± 0.098	1.01 ± 0.14	1.02 ± 0.11	0.841 ± 0.088	0.911 ± 0.027	0.892 ± 0.061	0.896 ± 0.042
SUM149 BREAST	0.951 ± 0.21	0.911 ± 0.082	0.927 ± 0.11	0.84 ± 0.01	0.722 ± 0.054	0.624 ± 0.059	0.511 ± 0.084	0.336 ± 0.051	0.887 ± 0.032	0.997 ± 0.037	0.778 ± 0.039	0.779 ± 0.1	0.673 ± 0.067	0.665 ± 0.088	0.497 ± 0.033	0.494 ± 0.014
SUM149.B1*.S BREAST	1.092 ± 0.0038	1.09 ± 0.094	1.08 ± 0.031	1.05 ± 0.022	1.03 ± 0.015	0.962 ± 0.035	1.04 ± 0.011	0.911 ± 0.04	1.12 ± 0.023	1.1 ± 0.022	1.07 ± 0.045	1.1 ± 0.045	1.01 ± 0.04	1.02 ± 0.033	0.94 ± 0.053	1 ± 0.056
SUM159 BREAST	1.12 ± 0.075	1.05 ± 0.066	1.084 ± 0.01	1.06 ± 0.016	1.05 ± 0.051	0.948 ± 0.24	1.02 ± 0.079	0.993 ± 0.091	1.09 ± 0.024	1.1 ± 0.027	1.09 ± 0.035	1.07 ± 0.02	1.06 ± 0.044	1.04 ± 0.0053	1.06 ± 0.019	1.05 ± 0.018
SYO1 SYNOVIAL	0.992 ± 0.055	0.95 ± 0.053	0.924 ± 0.045	0.881 ± 0.06	0.724 ± 0.025	0.6731 ± 0.0055	0.564 ± 0.044	0.429 ± 0.027	0.954 ± 0.081	0.921 ± 0.022	0.842 ± 0.014	0.8 ± 0.019	0.655 ± 0.029	0.587 ± 0.032	0.455 ± 0.037	0.351 ± 0.04
T47D BREAST	1.01 ± 0.04	1 ± 0.052	0.986 ± 0.011	0.982 ± 0.027	0.997 ± 0.061	0.9606 ± 0.0086	0.971 ± 0.05	0.864 ± 0.023	0.999 ± 0.015	1.04 ± 0.019	1.04 ± 0.021	0.999 ± 0.019	0.969 ± 0.033	0.954 ± 0.046	0.911 ± 0.0085	0.943 ± 0.023
U2OS BONE	1.08 ± 0.045	1.05 ± 0.069	1.06 ± 0.044	1.07 ± 0.04	1.05 ± 0.055	1.01 ± 0.046	0.945 ± 0.018	0.877 ± 0.032	1 ± 0.016	1.01 ± 0.051	1.03 ± 0.036	1.06 ± 0.031	0.961 ± 0.011	0.926 ± 0.037	0.883 ± 0.013	0.774 ± 0.052
VCAP PROSTATE	1.17 ± 0.067	1.1 ± 0.074	1.17 ± 0.089	1.04 ± 0.13	1.08 ± 0.09	1.09 ± 0.12	1.03 ± 0.089	0.922 ± 0.074	1.01 ± 0.11	1.04 ± 0.14	1.06 ± 0.21	1.04 ± 0.052	0.921 ± 0.12	1.02 ± 0.07	0.881 ± 0.15	0.908 ± 0.092
VP229 BREAST	1.07 ± 0.11	1.08 ± 0.13	1.01 ± 0.021	1.12 ± 0.19	0.886 ± 0.071	0.788 ± 0.068	0.879 ± 0.12	0.821 ± 0.046	1.15 ± 0.18	1.01 ± 0.14	1.04 ± 0.058	1.01 ± 0.12	0.954 ± 0.042	0.848 ± 0.076	0.823 ± 0.05	0.917 ± 0.067
YAMATO SYNOVIAL	1.38 ± 0.12	1.4 ± 0.08	1.49 ± 0.062	1.37 ± 0.11	0.894 ± 0.084	0.871 ± 0.092	0.819 ± 0.02	0.738 ± 0.044	1.32 ± 0.043	1.35 ± 0.12	1.28 ± 0.066	1.3 ± 0.1	0.949 ± 0.13	0.982 ± 0.11	0.794 ± 0.022	0.811 ± 0.13
ZR751 BREAST	1.11 ± 0.17	1.08 ± 0.13	1.08 ± 0.35	1.01 ± 0.1	1.1 ± 0.023	1.11 ± 0.086	1.14 ± 0.089	1.02 ± 0.14	0.991 ± 0.15	0.962 ± 0.049	0.981 ± 0.075	1.1 ± 0.11	0.873 ± 0.056	0.903 ± 0.075	0.823 ± 0.037	0.709 ± 0.12

From the supplement of paper PMC6045584
